From BindingDB's records for doi:10.1016/j.bioorg.2017.01.007 (Panjab University, 2017)

Each compound was assayed against T1, Tyrosine-protein phosphatase non-receptor type 1 (Homo sapiens, UniProt P18031) (assay: In Vitro PTP1B Inhibition Assay).
T1 sequence (P18031 whole entry): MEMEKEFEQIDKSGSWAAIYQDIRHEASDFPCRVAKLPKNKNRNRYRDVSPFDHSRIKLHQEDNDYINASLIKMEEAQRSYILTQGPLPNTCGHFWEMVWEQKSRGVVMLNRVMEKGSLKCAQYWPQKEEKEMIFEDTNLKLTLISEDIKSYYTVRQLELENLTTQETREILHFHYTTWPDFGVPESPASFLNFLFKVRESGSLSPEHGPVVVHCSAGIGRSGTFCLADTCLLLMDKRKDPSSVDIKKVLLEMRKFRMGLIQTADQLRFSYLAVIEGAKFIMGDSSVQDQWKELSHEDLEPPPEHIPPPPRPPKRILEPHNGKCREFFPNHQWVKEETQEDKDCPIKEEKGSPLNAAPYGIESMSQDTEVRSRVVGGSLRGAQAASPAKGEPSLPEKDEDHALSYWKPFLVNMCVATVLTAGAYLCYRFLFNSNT
Protocol: 10 mM stock solution (in assay buffer containing 1% DMSO) of the test compounds were prepared. Taking suitable aliquots from this stock solution, five different concentrations were made by dilutions. […] A 96 well microtiter plate was used for carrying out the assay using 10 mM DMSO as control. The reaction was carried out in 96 well, flatbottomed microtiter plates at 10 mM concentration using DMSO as control.

Question: With `COc1cc(/C=C2\SC(=O)NC2=O)ccc1OS(=O)(=O)Cc1ccccc1` [(Z)-4-((2,4-dioxothiazolidin-5-ylidene)methyl)-2-methoxyphenyl phenylmethanesulfonate (20)] as the compound, how does the IC50 read?
Answer: 59.9 µM

Question: For `COc1cc(/C=C2\SC(=O)NC2=O)ccc1OS(=O)(=O)c1c(C)cc(C)cc1C` [(Z)-4-((2,4-dioxothiazolidin-5-ylidene)methyl)-2-methoxyphenyl-2,4,6-trimethylbenzenesulphonate (15)], which IC50 is on record?
Answer: 26.9 µM

Question: How did the IC50 turn out when `COc1cc(/C=C2\SC(=O)NC2=O)ccc1OS(=O)(=O)c1ccccc1[N+](=O)[O-]` [(Z)-4-((2,4-dioxothiazolidin-5-ylidene)methyl)-2-methoxyphenyl-2-nitrobenzenesulfonate (19)] was run?
Answer: 50.4 µM

Question: How did the IC50 turn out when `COc1cc(/C=C2\SC(=O)NC2=O)ccc1OS(=O)(=O)c1ccc(Br)cc1` [(Z)-4-((2,4-dioxothiazolidin-5-ylidene)methyl)-2-methoxyphenyl-4-bromobenzenesulfonate (18)] was run?
Answer: 21.8 µM

Question: With `COc1cc(/C=C2\SC(=O)NC2=O)ccc1OS(=O)(=O)c1ccc(Cl)cc1` [(Z)-4-((2,4-dioxothiazolidin-5-ylidene)methyl)-2-methoxyphenyl-4-chlorobenzenesulfonate (17)] as the compound, how does the IC50 read?
Answer: 25.3 µM

Question: For `COc1ccc(S(=O)(=O)Oc2ccc(/C=C3\SC(=O)NC3=O)cc2OC)cc1` [(Z)-4-((2,4-dioxothiazolidin-5-ylidene)methyl)-2-methoxyphenyl-4-methoxybenzene sulfonate (14)], which IC50 is on record?
Answer: 28.2 µM

Question: Which IC50 does the source give for `COc1cc(/C=C2\SC(=O)NC2=O)ccc1OS(=O)(=O)c1ccc(C)cc1` [(Z)-4-((2,4-dioxothiazolidin-5-ylidene)methyl)-2-methoxyphenyl-4-methylbenzenesulfonate (12)] here?
Answer: 19 µM

Question: For `COc1cc(/C=C2\SC(=O)NC2=O)ccc1OS(=O)(=O)c1ccccc1` [(Z)-4-((2,4-dioxothiazolidin-5-ylidene)methyl)-2-methoxyphenylbenzenesulfonate (13)], which IC50 is on record?
Answer: 7.31 µM

Question: Which IC50 does the source give for `COc1cc(/C=C2\SC(=O)NC2=O)ccc1OS(C)(=O)=O` [(Z)-4-((2,4-dioxothiazolidin-5-ylidene)methyl)-2-methoxyphenylmethane sulfonate (16)] here?
Answer: 8.73 µM

Question: For `COc1cc(/C=C2\SC(=O)NC2=O)ccc1OS(=O)(=O)c1ccc2ccccc2c1` [(Z)-4-((2,4-dioxothiazolidin-5-ylidene)methyl)-2-methoxyphenylnaphthalene-2-sulfonate (21)], which IC50 is on record?
Answer: 61.4 µM
